According to patent US12691109B2, “Bifunctional aggregation-induced emission luminogen for monitoring and killing of multidrug-resistant bacteria” (The Hong Kong University of Science and Technology, priority 2018, dated 2026):

Tests used:
Assay in all cases: Antibacterial activity, MIC
Assay type in all cases: cell-based
S. epidermidis = settings: laboratory-sensitive strain
MDR E. coli = settings: clinical MDR isolate
MDR S. aureus = settings: clinical MDR isolate
K. pneumoniae = settings: laboratory-sensitive strain
E. coli = settings: laboratory-sensitive strain
S. aureus = settings: laboratory-sensitive strain
MDR K. pneumoniae = settings: clinical MDR isolate
MDR S. epidermidis = settings: clinical MDR isolate

| Substance | MIC, S. epidermidis (S. epidermidis) | MIC, MDR E.coli (MDR E. coli) | MIC, MDR S. aureus (MDR S. aureus) | MIC, K. pneumoniae (K. pneumoniae) | MIC, E.coli (E. coli) | MIC, S. aureus (S. aureus) | MIC, MDR K. pneumoniae (MDR K. pneumoniae) | MIC, MDR S. epidermidis (MDR S. epidermidis) | MIC, MDR E.coli (MDR E. coli; listed as polymyxin) | MIC, MDR K. pneumoniae (MDR K. pneumoniae; listed as polymyxin) |
| --- | --- | --- | --- | --- | --- | --- | --- | --- | --- | --- |
| Gentamicin | <2 µg/mL | >128 µg/mL | >128 µg/mL | <2 µg/mL | <2 µg/mL | <2 µg/mL | >128 µg/mL | <2 µg/mL |  |  |
| Penicilin | <2 µg/mL | >128 µg/mL | 64 µg/mL | 32 µg/mL | <2 µg/mL | <2 µg/mL | >128 µg/mL | >32 µg/mL |  |  |
| Polymyxin | 64 µg/mL | 32 µg/mL | >128 µg/mL | <2 µg/mL | 16 µg/mL | >128 µg/mL | 64 µg/mL | >128 µg/mL | > 32 µg/mL | > 64 µg/mL |
